Experimental data from the supplement of paper PMC10307832.

Key:
Assay in all cases: relative viability (nuclei count vs DMSO), 5 days (fraction); higher = more cells survive
[1] = compound: CN1C=C(C2=CC=CC=C21)/C=C\3/C4=C(C=CC=N4)NC3=O + O=C(CCCCCCC(=O)Nc1ccccc1)NO [Vorinostat] (partner 1 µM)
Procedure, shortened: (§1)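 Lung cancer cell lines were pin-tool dosed in 1536-well plates on the day after seeding, with either a lone drug or a fixed anchor-drug dose plus five library-drug doses (not always all listed) in √10 steps. Nuclei were counted on 4× images after 5 days. Relative viability is the ratio of treated-well to vehicle-well nuclei counts, with each value a median of duplicate plates.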

Trametinib + Alpelisib = compound: CC(=O)Nc1cccc(-n2c(=O)n(C3CC3)c(=O)c3c(Nc4ccc(I)cc4F)n(C)c(=O)c(C)c32)c1 [Trametinib] + Cc1nc(NC(=O)N2CCC[C@H]2C(N)=O)sc1-c1ccnc(C(C)(C)C(F)(F)F)c1 [Alpelisib] (partner 2 µM)
Procedure, shortened: as §1

Trametinib + Bortezomib = compound: CC(=O)Nc1cccc(-n2c(=O)n(C3CC3)c(=O)c3c(Nc4ccc(I)cc4F)n(C)c(=O)c(C)c32)c1 [Trametinib] + CC(C)C[C@H](NC(=O)[C@H](Cc1ccccc1)NC(=O)c1cnccn1)B(O)O [Bortezomib] (partner 0.002 µM)
Procedure, shortened: as §1

[2] = compound: CN1C=C(C2=CC=CC=C21)/C=C\3/C4=C(C=CC=N4)NC3=O + Nc1nc2[nH]cc(CCc3ccc(C(=O)N[C@@H](CCC(=O)O)C(=O)O)cc3)c2c(=O)[nH]1 [Pemetrexed] (partner 0.2 µM)
Procedure, shortened: as §1

Row | Cell Line | relative viability ([1]; first compound 0.02 µM) | relative viability ([1]; first compound 0.06325 µM) | relative viability ([1]; first compound 0.2 µM) | relative viability ([1]; first compound 0.6325 µM) | relative viability ([1]; first compound 2 µM) | relative viability (Trametinib + Alpelisib; first compound 0.0025 µM) | relative viability (Trametinib + Alpelisib; first compound 0.007906 µM) | relative viability (Trametinib + Alpelisib; first compound 0.025 µM) | relative viability (Trametinib + Alpelisib; first compound 0.07906 µM) | relative viability (Trametinib + Alpelisib; first compound 0.25 µM) | relative viability (Trametinib + Bortezomib; first compound 0.0025 µM) | relative viability (Trametinib + Bortezomib; first compound 0.007906 µM) | relative viability (Trametinib + Bortezomib; first compound 0.025 µM) | relative viability (Trametinib + Bortezomib; first compound 0.07906 µM) | relative viability (Trametinib + Bortezomib; first compound 0.25 µM) | relative viability ([2]; first compound 0.02 µM) | relative viability ([2]; first compound 0.06325 µM) | relative viability ([2]; first compound 0.2 µM) | relative viability ([2]; first compound 0.6325 µM) | relative viability ([2]; first compound 2 µM)
1 | COR-L23 | 0.452 | 0.433 | 0.42 | 0.479 | 0.396 | 0.766 | 0.723 | 0.668 | 0.436 | 0.241 | 0.982 | 1 | 1.02 | 0.935 | 0.309 | 0.197 | 0.189 | 0.209 | 0.18 | 0.19
2 | NCI-H3122 | 0.767 | 1.06 | 0.734 | 1.02 | 1 | 0.466 | 0.395 | 0.224 | 0.234 | 0.21 | 0.985 | 0.74 | 0.595 | 0.432 | 0.361 | 0.185 | 0.196 | 0.203 | 0.194 | 0.267
3 | BEN | 0.547 | 0.541 | 0.571 | 0.636 | 0.574 | 0.951 | 0.939 |  | 0.763 | 0.888 | 0.76 | 0.725 |  | 0.531 | 0.657 | 0.715 | 0.847 | 0.613 | 0.731 | 0.734
4 | NCI-H647 | 0.498 | 0.529 | 0.676 | 0.524 | 0.531 | 1.14 | 0.956 | 0.768 | 0.638 | 0.199 | 0.853 | 0.75 | 0.652 | 0.654 | 0.294 | 0.122 | 0.173 | 0.153 | 0.167 | 0.175
5 | PC-14 | 0.759 | 0.583 | 0.728 | 0.674 | 0.744 | 0.994 | 0.892 | 0.949 | 0.654 | 0.46 | 0.918 | 0.834 | 0.673 | 0.76 | 0.594 | 0.141 | 0.137 | 0.145 | 0.143 | 0.118
6 | HCC-78 | 0.431 | 0.46 | 0.381 | 0.424 | 0.427 | 0.304 | 0.242 | 0.226 | 0.205 | 0.224 | 0.399 | 0.404 | 0.4 | 0.395 | 0.332 | 0.907 | 0.945 | 0.951 | 0.903 | 0.913
